Test results reported in patent US20110230566A1, “PERFLUOROCARBON EYE CREAM FORMULATIONS” (priority 2010, published 2011).

Columns and labels:
[1] = Physical properties of perfluoro(tert-butylcyclohexane); assay type: physicochemical
From the text: Physical properties of perfluoro(tert-butylcyclohexane) are as follows:
Oxycyte® is a perfluorocarbon emulsion oxygen carrier. The active ingredient in Oxycyte®, perfluoro(tert-butylcyclohexane) (C10F20, MW˜500), also known as F-tert-butylcyclohexane or “FtBu”, is a saturated alicyclic PFC. […] Oxycyte® can be used in the PFC compositions, methods and uses described herein.
Being that the PFCs are slightly lipophilic at body temperature and would help in the transport of oxygen into and removal of carbon dioxide from, e.g., periocular skin.

[2] = Oxygen and CO2 carrying capacity of the PFC; assay type: physicochemical; conditions: at body temperature
Method: Perfluoro(tert-butylcyclohexane) can carry about 43 mL of oxygen per 100 mL of PFC, and 196 mL of CO2 per 100 mL of PFC at body temperature.

**Q.** Which Density [1] does the source give for FC(F)(F)C(C(F)(F)F)(C(F)(F)F)C1(F)C(F)(F)C(F)(F)C(F)(F)C(F)(F)C1(F)F [perfluoro(tert-butylcyclohexane)] here?
**A.** The Density was 1.97 g/mL.

**Q.** What about the “Kinematic Viscosity” value [1] of the same compound?
**A.** Its value is 5.378 cP.

**Q.** What about the water solubility [1] of the same compound?
**A.** The water solubility was “non-water soluble”.

**Q.** What about the “Vapor Pressure” value ([1]; @ 25° C.) of the same compound?
**A.** Its value is 3.8 mmHg.

**Q.** And the “Vapor Pressure” value ([1]; @ 37° C.)?
**A.** The value was 4.4 mmHg.

**Q.** And the lipophilicity ([1]; at body temperature)?
**A.** Its lipophilicity is “only slightly lipophilic”.

**Q.** What about the lipophilicity ([1]; at room temperature) of the same compound?
**A.** The lipophilicity was “not lipophilic”.

**Q.** What about the lipophilicity ([1]; temperature not stated) of the same compound?
**A.** The lipophilicity was “non-lipophilic”.

**Q.** And the CO2 carried [2]?
**A.** Its CO2 carried is ~196 mL of CO2 per 100 mL of PFC.

**Q.** What about the oxygen carried [2] of the same compound?
**A.** Its oxygen carried is “about 43 mL of oxygen per 100 mL of PFC”.
